Reference: ChEMBL document CHEMBL1201862, “PubChem BioAssay data set” (2004)
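Five compound concentrations were applied to cells in 96-well plates for 48 hours; endpoints were derived by simple linear interpolation of the resulting dose-response curve. Here, GI50 denotes the concentration required for 50% inhibition of growth.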 Calls of active or inactive are those of the source. No stated cut-off is given here; in the data, active = GI50 up to about 1.1 µM and inactive = higher.

Columns and labels:
Experiment in all cases: DTP human tumour cell line panel, 48 h
SK-MEL-28 = tested on: SK-MEL-28
SF-295 = tested on: SF-295
UACC-62 = tested on: UACC-62
SW-620 = tested on: SW-620
OVCAR-3 = tested on: OVCAR-3
RPMI-8226 = tested on: RPMI-8226
HOP-62 = tested on: HOP-62
M14 = tested on: M14
A498 = tested on: A498
TK-10 = tested on: TK-10
786-0 = tested on: 786-0
KM12 = tested on: KM12
HT-29 = tested on: HT-29
SNB-78 = tested on: SNB-78
OVCAR-8 = tested on: OVCAR-8
KM-20L2 = tested on: KM-20L2
DMS-114 = tested on: DMS-114
CAKI-1 = tested on: CAKI-1
HL-60 = tested on: HL-60

Row | SMILES | GI50 (SK-MEL-28) | GI50 (SF-295) | GI50 (UACC-62) | GI50 (SW-620) | GI50 (OVCAR-3) | GI50 (RPMI-8226) | GI50 (HOP-62) | GI50 (M14) | GI50 (A498) | GI50 (TK-10) | GI50 (786-0) | GI50 (KM12) | GI50 (HT-29) | GI50 (SNB-78) | GI50 (OVCAR-8) | GI50 (KM-20L2) | GI50 (DMS-114) | GI50 (CAKI-1) | GI50 (HL-60)
1 | NC(=O)C(=Cc1ccc(C(O)P(=O)(O)O)cc1)C(N)=O (stereo not drawn) | > 100 µM (inactive) | > 100 µM (inactive) | > 100 µM (inactive) | > 100 µM (inactive) | > 100 µM (inactive) | > 100 µM (inactive) | > 100 µM (inactive) | > 100 µM (inactive) | > 100 µM (inactive) | > 100 µM (inactive) | > 100 µM (inactive) | > 100 µM (inactive) | > 100 µM (inactive) | > 100 µM (inactive) | > 100 µM (inactive) | > 100 µM (inactive) | > 100 µM (inactive) | > 100 µM (inactive) | –
2 | CCC1(CN(C)C)CC/C(=C\c2ccc(OC)cc2)C1=O (stereo not drawn) | > 100 µM (inactive) | > 100 µM (inactive) | > 100 µM (inactive) | > 100 µM (inactive) | > 100 µM (inactive) | 17.4 µM (inactive) | > 100 µM (inactive) | > 100 µM (inactive) | 84.1 µM (inactive) | > 100 µM (inactive) | > 100 µM (inactive) | > 100 µM (inactive) | 44.9 µM (inactive) | > 100 µM (inactive) | > 100 µM (inactive) | > 100 µM (inactive) | 54.1 µM (inactive) | > 100 µM (inactive) | –
3 | COC1CC(O[C@H]2CC[C@@]3(C)C(=CCC4(O)C3CCC35C(=O)OC6(C)O[C@@]43CCC65)C2)OC(C)C1O (stereo partly drawn) | > 100 µM (inactive) | > 100 µM (inactive) | > 100 µM (inactive) | – | – | > 100 µM (inactive) | > 100 µM (inactive) | > 100 µM (inactive) | > 100 µM (inactive) | > 100 µM (inactive) | > 100 µM (inactive) | > 100 µM (inactive) | > 100 µM (inactive) | > 100 µM (inactive) | > 100 µM (inactive) | > 100 µM (inactive) | > 100 µM (inactive) | > 100 µM (inactive) | > 100 µM (inactive)
4 | C/N=C(\S)N/N=C/C(C)=N/N/C(S)=N/C | > 100 µM (inactive) | > 100 µM (inactive) | > 100 µM (inactive) | > 100 µM (inactive) | > 100 µM (inactive) | 0.583 µM (active) | > 100 µM (inactive) | > 100 µM (inactive) | 48.2 µM (inactive) | > 100 µM (inactive) | > 100 µM (inactive) | > 100 µM (inactive) | – | > 100 µM (inactive) | – | 0.631 µM (active) | 0.0414 µM (active) | – | –
